Source: patent US9149441B2 (priority 2008, dated 2015)

Assays:
red blood cells (RBCs) = assay: Potassium release from red blood cells (membrane toxicity); type: cell-based; conditions: all experimental concentrations; solution effect rising up to 0.08 mg/ml
From the text: Potassium is found in high concentrations inside the red blood cells (RBCs). Any damage to membrane will result in leaking out of potassium from the RBCs.

E. Coli = assay: Gentamicin formulations in E. Coli septic shock (peritonitis) rat model; type: in vivo; conditions: for % inhibition of the bacterial growth in the blood / Bact. count (cfu/mL): 120 hrs; for Bact. count (cfu/mL): blood; for Survival: peritonitis rat model (Table 5)
Method: Gentamicin in the solution and the nanosphere form were tested on rats in order to evaluate the E. Coli distribution in the body, also the two formulations were evaluated in septic shock rat models.
Group 1. Determination of the efficacy of the encapsulated and solution formulation of gentamicin. [Pre-treatment Group].
(§1) The nanospheres and solution gentamicin formulations (15 mg/kg twice/day for 3 days) or blank nanospheres (control) were injected to different groups of animals 4 hrs prior to the animals being injected with E. Coli (i.p.; 1.1×10^9 cfu/mL). Blood samples were obtained to determine the bacterial count at 0, 4, 24, 48, 96 and 120 hrs.
Group 2. Determination of the efficacy of the encapsulated and solution formulations of gentamicin. [Simultaneous treatment Group]
(§2) In this set of experiments, E. Coli bacteria (1.1×10^9 cfu/mL) were administered i.p. and simultaneously the NS and solution gentamicin formulations (15 mg/kg twice/day for 3 days) or blank nanospheres (control) were injected subcutaneously to different groups of rats. Blood samples were obtained to determine the bacterial count at 0, 4, 24, 48, 96 and 120 hrs.
Group 3. Determination of the efficacy of the nanosphere and solution formulation of gentamicin. [Delayed treatment Group].
as §2, with “i.p. to different groups of rats” for “i.p.”, “4 hrs following infection” for “simultaneously”, “injected.” for “injected subcutaneously to different groups of rats.”

S. Aureus = assay: Vancomycin formulations in S. Aureus septic shock rat model; type: in vivo; conditions: for Survival: simultaneous treatment group, peritonitis rat model (Table 8), 15 mg/kg twice/day for 3 days
Method: The efficacy of vancomycin nanospheres as compared to the solution formulation was determined in a septic shock rat model.
Three scenarios were evaluated:
Group 1. Determination of the efficacy of the encapsulated and solution formulation of vancomycin. [Pre-treatment Group].
as §1, with “vancomycin” for “gentamicin”, “S. Aureus” for “E. Coli”, “1.0×10^8” for “1.1×10^9”, “samples (0.5 mL)” for “samples”
Group 2. Determination of the efficacy of the encapsulated and solution formulations of vancomycin. [Simultaneous treatment Group]
as §2, with “S. Aureus” for “E. Coli”, “(1.0×10^8” for “(1.1×10^9”, “samples (0.5 mL)” for “samples”
Group 3. Determination of the efficacy of the nanosphere and solution formulation of vancomycin. [Delayed treatment Group].
In this set of experiments, S. Aureus bacteria (1.0×10^8 cfu/mL) were administered i.p. to different groups of rats and 4 hrs following infection the NS and solution gentamicin formulations (15 mg/kg twice/day for 3 days) or blank nanospheres (control) were injected. Blood samples (0.5 mL) were obtained to determine the bacterial count at 0, 4, 24, 48, 96 and 120 hrs.

Compound	Potassium release from RBCs (red blood cells (RBCs))	% inhibition of the bacterial growth in the blood (E. Coli; delayed treatment group (Table 7), listed as Solution)	% inhibition of the bacterial growth in the blood (E. Coli; delayed treatment group (Table 7), listed as gentamicin solution)	% inhibition of the bacterial growth in the blood (E. Coli; prophylactic treatment group (Table 6))	% inhibition of the bacterial growth in the blood (E. Coli; simultaneous treatment group (Table 4))	% inhibition of the bacterial growth in the blood (E. Coli; simultaneous treatment group (Table 4), listed as gentamicin solution)	Bact. count (cfu/mL) (E. Coli; delayed treatment group)	Bact. count (cfu/mL) (E. Coli; simultaneous treatment group, 15 mg/kg twice/day for 3 days)	Survival (E. Coli; simultaneous treatment group)	Survival (E. Coli; simultaneous treatment group, listed as gentamicin solution)	Survival (S. Aureus)	Bacterial count in the blood vs blank BSA nanospheres (S. Aureus; text Group 3, FIG. 16 (delayed treatment))	Bacterial count in the blood vs blank BSA nanospheres (S. Aureus; text Group 1, FIG. 14 (prophylactic treatment))	Bacterial count in the blood vs blank BSA nanospheres (S. Aureus; text Group 2, FIG. 15 (simultaneous treatment))
C[C@@H]1[C@H](O)[C@@H](C)/C=C/C=C/C=C/C=C/C=C/C=C/C=C/[C@H](O[C@@H]2O[C@H](C)[C@@H](O)[C@H](N)[C@@H]2O)C[C@@H]2O[C@](O)(C[C@@H](O)C[C@@H](O)[C@H](O)CC[C@@H](O)C[C@@H](O)CC(=O)O[C@H]1C)C[C@H](O)[C@H]2C(=O)O [solution formulation of Amphotericin B, Amphotericin B]	significant release of potassium from the RBCs	–	–	–	–	–	–	–	–	–	–	–	–	–
gentamicin [Gentamicin Solution]	–	15%	about 15%	about 35%	75%	about 75%	110 cfu/mL	35 cfu/mL	35%	55%	40%	significant lower bacterial count	–	–
CN[C@H](CC(C)C)C(=O)N[C@H]1C(=O)N[C@@H](CC(N)=O)C(=O)N[C@H]2C(=O)N[C@H]3C(=O)N[C@H](C(=O)N[C@H](C(=O)O)c4cc(O)cc(O)c4-c4cc3ccc4O)[C@H](O)c3ccc(c(Cl)c3)Oc3cc2cc(c3O[C@@H]2O[C@H](CO)[C@@H](O)[C@H](O)[C@H]2O[C@H]2C[C@](C)(N)[C@H](O)[C@H](C)O2)Oc2ccc(cc2Cl)[C@H]1O [Vancomycin Solution, vancomycin]	–	–	–	–	–	–	–	–	–	–	40%	–	significant lower bacterial count	significant lower bacterial count
